Test results reported in US20150157588A1, “Pharmaceutical Composition Comprising Amino-Phenyl-Acetic Acid Octadec-(Z)-9-enyl Ester and Use Thereof for Treating Tumors” (Yeda Research and Development Co., Ltd., priority 2012, published 2015).

Assays:
[1] = Light scattering at 90 degrees of aggregates in PBS with 0-20% ethanol; type: physicochemical; design: key to intensity of light scattering, relative scale: relative light-scattering intensity; 0% ethanol = 100; conditions: 10 μM in PBS; for intensity of light scattering, relative scale: 90 degrees, 560 nm
Procedure: Light scattering at 90 degrees can be used to assess the amount of aggregates in a solution. Higher readings are indicative of a higher degree of aggregation, while lower readings are indicative of disintegration of aggregates into monomers. A series of 10 μM amino-phenyl-acetic acid octadec-(Z)-9-enyl ester solutions was prepared in PBS containing ethanol concentrations of 0-20%. The intensity of light scattering of each solution was recorded at 90 degrees with a 560 nm beam in a Perkin Elmer fluorimeter. The results, presented in a relative scale with respect to the percent ethanol (% ethanol indicated in brackets), were as follows: 100 (0); 98 (0.5); 90 (1): 75 (2); 45(3); 26 (4); 10 (5); 8 (10); 6 (20).

[2] = test system: p53 expressing L-12 mouse B cell line; experiment: Apoptosis by hypo-diploid nuclei PI staining, transformed B cell line; type: cell-based; conditions: 10 or 100 μg per ml in 5% ethanol solution, 48 h
Procedure: Apoptosis was measured by FACS analysis with a hypo-diploid nuclei propidium iodide (PI) staining of an amino-phenyl-acetic acid octadec-(Z)-9-enyl ester treated p53 expressing L-12 mouse B cell line. FIGS. 4A-4C: L-12 cells treated with 0, 10 or 100 μg/ml of amino-phenyl-acetic acid octadec-(Z)-9-enyl ester in ethanol solution, respectively; FIGS. 4D-4F: L-12 cells treated with 0, 10 or 100 μg/ml of the control reagent 4-methyl-piperazino-acetic acid ethyl ester in ethanol solution, respectively; and FIGS. 4G-4I: L-12 cells treated with an ethanol volume corresponding to 0, 10 or 100 μg/ml of amino-phenyl-acetic acid octadec-(Z)-9-enyl ester, respectively. FL2-A is the measure of fluorescence. […]
(§1) B or T-cell apoptosis was detected by flow cytometry. […] The cells were then subjected to flow cytometric analysis; for each sample 10,000 were collected and cell-cycle distribution was analyzed according to relative DNA content (PI staining). […] The cells were then collected, stained by APO-DIRECT TUNNEL kit (Phnxflow, CITY, Calif., USA); mitochondrial potential was measured by DePsipher (R&D Systems, Minneapolis, Minn.) according to the manufacturer's procedure. Intracellular caspase activity was measured by Apostat kit (R&D Systems), according to the manufacturer's procedure. The cells were analyzed by Flow cytometry using FACSort (Becton Dickinson) and CellQuest software (Becton Dickinson). […]

[3] = test system: freshly isolated mouse B cells; experiment: Spontaneous apoptosis by hypo-diploid nuclei PI staining, primary B cells; type: cell-based; conditions: 1 or 100 μg/ml in ethanol solution
Procedure: Apoptosis was measured by FACS analysis with a hypo-diploid nuclei propidium iodide (PI) staining of freshly isolated mouse B cells treated with amino-phenyl-acetic acid octadec-(Z)-9-enyl ester in ethanol solution. FIGS. 5A-5C: L-12 cells treated with 0, 1 or 100 μg/ml of amino-phenyl-acetic acid octadec-(Z)-9-enyl ester, respectively; FIGS. 5D-5F: L-12 cells treated with 0, 1 or 100 μg/ml of the control reagent 4-methyl-piperazino-acetic acid ethyl ester, respectively; and FIGS. 5G-5I: L-12 cells treated with an ethanol volume corresponding to 0, 1 or to 100 μg/ml of amino-phenyl-acetic acid octadec-(Z)-9-enyl ester in ethanol solution, respectively.
as §1

[4] = test system: virulent 3LL clone, D122; experiment: 3LL induced lung carcinoma, intravenous injection of D122 cells, deaths and lung weight; type: in vivo, mouse; conditions: for lung weight of the living mice: in mg (unit assumed); for number of dead mice: groups of 10, control seven
Procedure: 8-weeks old C57BL/6 male mice in groups of 10 were injected intravenously with 500,000 cells of a virulent 3LL clone, D122. Mice were treated daily for 35 days with either 5% ethanol in PBS (control); 100 μg amino-phenyl-acetic acid octadec-(Z)-9-enyl ester in 5% ethanol in PBS subcutaneously (SC); or 100 μg amino-phenyl-acetic acid octadec-(Z)-9-enyl ester in 5% ethanol in PBS intranasally (IN).
8-weeks old C57BL/6 male mice in groups of 10 were injected intravenously with 500,000 cells of a virulent 3LL clone, D122. Mice either left untreated, or were treated daily for 30 days with intranasal administration of either 5% ethanol in PBS (control); 100 μg of amino-phenyl-acetic acid octadec-(Z)-9-enyl ester in PBS; or 100 μg of amino-phenyl-acetic acid octadec-(Z)-9-enyl ester in 5% ethanol in PBS.
As shown in FIGS. 7A-7D, while treatment with amino-phenyl-acetic acid octadec-(Z)-9-enyl ester in PBS reduced the lung weight of the living mice from 718±351 in the control mice treated with 5% ethanol in PBS to 671±187 (FIGS. 7B-7C), treatment with amino-phenyl-acetic acid octadec-(Z)-9-enyl ester in ethanol solution reduced the lung weight of the living mice to 317±103 (FIG. 7D).

[5] = 100 μg in 5% ethanol in PBS intranasally daily for 35 days
[6] = 100 μg in 5% ethanol in PBS subcutaneously daily for 35 days

SMILES: CCCCCCCC/C=C\CCCCCCCCOC(=O)C(N)c1ccccc1 (stereo not drawn) [amino-phenyl-acetic acid octadec-(Z)-9-enyl ester]
- ethanol concentration in whose presence micellar aggregates disintegrate [1]: above 4 % ethanol
- intensity of light scattering, relative scale ([1]; 0% ethanol): 100
- intensity of light scattering, relative scale ([1]; 0.5% ethanol): 98
- intensity of light scattering, relative scale ([1]; 1% ethanol): 90
- intensity of light scattering, relative scale ([1]; 2% ethanol): 75
- intensity of light scattering, relative scale ([1]; 3% ethanol): 45
- intensity of light scattering, relative scale ([1]; 4% ethanol): 26
- intensity of light scattering, relative scale ([1]; 5% ethanol): 10
- intensity of light scattering, relative scale ([1]; 10% ethanol): 8
- intensity of light scattering, relative scale ([1]; 20% ethanol): 6
- apoptosis / cell cycle (cells in sub-GO state) [2]: induced massive apoptosis
- spontaneous apoptosis / cell-cycle of primary B cells [3]: partially protected from the spontaneous apoptosis
- lung weight of the living mice ([4]; 100 μg in 5% ethanol in PBS intranasally daily for 30 days): 317±103
- number of dead mice [4, 5]: a single mouse
- lung weight of the living mice [4, 5]: 259±84
- number of dead mice [4, 6]: four
- lung weight of the living mice [4, 6]: 501±252
- lung weight of the living mice ([4]; 100 μg in PBS intranasally daily for 30 days): 671±187
